Reference: ChEMBL document CHEMBL5247651, “Oxadiazolopyridine Derivatives as Efficacious Mitochondrial Uncouplers in the Prevention of Diet-Induced Obesity” (J Med Chem, 2023)
Calls of active or inactive are those of the source. The calls are words filed in the database; no cut-off is given here.

Tests used:
[1] = Induction of mitochondrial uncoupling activity in rat L6 cells assessed as increase in oxygen consumption rate measured after 90 mins by agilent Seahorse XF analyzer; assay type: functional, cell-based
[2] = (§1) Induction of mitochondrial uncoupling activity in rat L6 cells assessed as increase in oxygen consumption rate at 0.37 to 200 uM measured after 90 mins by agilent Seahorse XF analyzer relative to BAM15; assay type: functional; details: dose 0.37-200 µM, 1.5 h
L6 [3] = details: Rattus norvegicus, time 90.0 min
L6 [4] = assay: as §1; assay type: functional; details: dose 0.37-200 µM
[5] = Cmax in C57BL/6 mouse at 10 mg/kg, po administered via gavage measured upto 24 hrs by LC/MS-MS analysis; assay type: ADME, organism-based; design: dose 10 mg/kg, time < 24 hrs, route po; details: in vivo
[6] = Half life in C57BL/6 mouse at 10 mg/kg, po administered via gavage measured upto 24 hrs by LC/MS-MS analysis; assay type: ADME, organism-based; details: in vivo
Mus musculus [7] = assay: Anti-obesity activity against HFD-induced C57BL/6J mouse model assessed as reduction in diet-induced weight gain at 125 mg/kg/day measured after 8 weeks; assay type: functional; design: scale not given: the % may be the effect or the level left
Mus musculus [8] = assay: Anti-obesity activity against HFD-induced C57BL/6 mouse model assessed as reduction in body fat mass at 5 mg/kg, po via gavage administered 3 times a week measured after 6 weeks; assay type: functional; design: scale not given: the % may be the effect or the level left

Compound | pEC50 [1] | Activity [2] | also measured
Oc1nc2nonc2cc1Nc1c(F)cc(F)cc1F | 4.4 | 14% | –
Oc1nc2nonc2cc1Nc1ccc(F)cc1F | – | – | pEC50 (L6 [3]): inactive; Activity (L6 [4]): inactive
Oc1nc2nonc2cc1Nc1ccc(OC(F)(F)C(F)F)cc1 | – | – | pEC50 (L6 [3]): inactive; Activity (L6 [4]): inactive
O=S(=O)(c1ccc(Nc2cc3nonc3nc2O)cc1)C(F)(F)F | 6 | 25% | –
CS(=O)(=O)c1ccc(Nc2cc3nonc3nc2O)cc1 | – | – | pEC50 (L6 [3]): inactive; Activity (L6 [4]): inactive
Oc1nc2nonc2cc1Nc1cccc(F)c1F | – | 3% | pEC50 (L6 [3]): inactive
Oc1nc2nonc2cc1Nc1ccccc1OC(F)(F)F | – | – | pEC50 (L6 [3]): inactive; Activity (L6 [4]): inactive
Oc1nc2nonc2cc1Nc1cc(OC(F)(F)F)c(F)cc1F | 5.7 | 58% | –
Cc1ccc(Nc2cc3nonc3nc2O)cc1 | – | – | pEC50 (L6 [3]): inactive; Activity (L6 [4]): inactive
Oc1nc2nonc2cc1Nc1cc(F)ccc1F | 4.7 | 27% | –
Oc1nc2nonc2cc1Nc1ccc(F)cc1 | – | 6% | pEC50 (L6 [3]): inactive
Oc1nc2nonc2cc1Nc1ccc(F)c(F)c1F | – | 2% | pEC50 (L6 [3]): inactive
Oc1nc2nonc2cc1Nc1ccc(S(F)(F)(F)(F)F)cc1 | 6.2 | 4% | –
Oc1nc2nonc2cc1Nc1ccccc1F | – | – | pEC50 (L6 [3]): inactive
Oc1nc2nonc2cc1Nc1cc(C(F)(F)F)cc(C(F)(F)F)c1 | 5.8 | 35% | –
Oc1nc2nonc2cc1Nc1c(F)c(F)c(C(F)(F)F)c(F)c1F | 5.9 | 69% | Cmax [5]: 21 µM; t1/2 [6]: 15.6 h; EC50 [1]: 2 µM

Compound | pEC50 [1] | Activity [2] | also measured
O=C(Nc1ccc([N+](=O)[O-])cc1Cl)c1cc(Cl)ccc1O [NICLOSAMIDE] | – | – | Activity (Mus musculus [7]): 25%
Oc1nc2nonc2cc1Nc1cccc(S(F)(F)(F)(F)F)c1 | 5.9 | 20% | –
Oc1nc2nonc2cc1Nc1ccc(C(F)(F)F)cc1F | – | 9% | pEC50 (L6 [3]): inactive
Oc1nc2nonc2cc1Nc1cc(F)cc(OC(F)(F)F)c1 | – | 6% | pEC50 (L6 [3]): inactive
Oc1nc2nonc2cc1Nc1c(F)cccc1F | – | 6% | pEC50 (L6 [3]): inactive
CC(C)(C)c1ccccc1Nc1cc2nonc2nc1O | – | – | pEC50 (L6 [3]): inactive; Activity (L6 [4]): inactive
O=C(Nc1cc(Cl)cc(Cl)c1)Nc1cc(Cl)cc(Cl)c1 | – | – | Activity (Mus musculus [8]): 35%
Oc1nc2nonc2cc1Nc1cc(F)cc(F)c1 | 4.3 | 24% | –
O=S(=O)(c1cccc(Nc2cc3nonc3nc2O)c1)C(F)(F)F | > 4 | 13% | –
Oc1nc2nonc2cc1Nc1ccc(OC(F)(F)F)cc1 | 5.8 | 14% | –
Oc1nc2nonc2cc1Nc1cccc(C(F)(F)F)c1F | – | 3% | pEC50 (L6 [3]): inactive
Oc1nc2nonc2cc1Nc1cccc(F)c1 | – | 3% | pEC50 (L6 [3]): inactive
COc1ccc(Nc2cc3nonc3nc2O)cc1 | – | – | pEC50 (L6 [3]): inactive; Activity (L6 [4]): inactive
Oc1nc2nonc2cc1Nc1cc(F)c(F)c(F)c1 | 5.6 | 21% | –
Oc1nc2nonc2cc1Nc1ccc(C(F)(F)F)cc1 | – | 28% | EC50 [1]: 6.9 µM

The next lines start with results.

pEC50 [1] | Compound | Activity [2] | also measured
5.7 | Oc1nc2nonc2cc1Nc1ccc(F)cc1OC(F)(F)F | 14% | –
5.8 | Oc1nc2nonc2cc1Nc1ccc(OC(F)(F)F)cc1F | 11% | –
6.1 | Oc1nc2nonc2cc1Nc1cc(F)cc(C(F)(F)F)c1 | 11% | –
4.3 | Oc1nc2nonc2cc1Nc1c(F)cccc1C(F)(F)F | 10% | –
5.5 | Oc1nc2nonc2cc1Nc1cc(OC(F)(F)F)ccc1F | 59% | EC50 [1]: 3.4 µM
5.6 | Oc1nc2nonc2cc1Nc1ccc(OC(F)(F)F)c(F)c1 | 25% | –
5.3 | Oc1nc2nonc2cc1Nc1ccc(F)cc1C(F)(F)F | 29% | –
4.7 | Oc1nc2nonc2cc1Nc1ccc(C(F)(F)F)nc1 | 26% | EC50 [1]: 20 µM
5.3 | Oc1nc2nonc2cc1Nc1cccc(F)c1C(F)(F)F | 26% | –
6.1 | Oc1nc2nonc2cc1Nc1cc(F)c(C(F)(F)F)cc1F | 26% | –
5.7 | Oc1nc2nonc2cc1Nc1cc(C(F)(F)F)ccc1C(F)(F)F | 72% | Cmax [5]: 29 µM; t1/2 [6]: 2.2 h; EC50 [1]: 1.5 µM
5.1 | Oc1nc2nonc2cc1Nc1cc(F)ccc1C(F)(F)F | 53% | EC50 [1]: 7.8 µM
5.8 | Oc1nc2nonc2cc1Nc1cccc(C(F)(F)F)c1 | 14% | –
5.3 | Oc1nc2nonc2cc1Nc1cccc(OC(F)(F)F)c1 | 17% | –
5.9 | Oc1nc2nonc2cc1Nc1cc(F)ccc1OC(F)(F)F | 13% | –
5.5 | Oc1nc2nonc2cc1Nc1cc(C(F)(F)F)c(F)cc1F | 51% | Cmax [5]: 25 µM; t1/2 [6]: 1.3 h; EC50 [1]: 1.4 µM
5.7 | Oc1nc2nonc2cc1Nc1cccc(C(F)(F)F)c1C(F)(F)F | 11% | –
5.9 | Oc1nc2nonc2cc1Nc1cc(F)c(C(F)(F)F)c(F)c1 | 33% | –
6 | Oc1nc2nonc2cc1Nc1ccc(C(F)(F)F)cc1C(F)(F)F | 34% | –
5.4 | Oc1nc2nonc2cc1Nc1cc(C(F)(F)F)ccc1F | 54% | Cmax [5]: 46 µM; t1/2 [6]: 1 h; EC50 [1]: 1.5 µM
6 | Oc1nc2nonc2cc1Nc1ccc(C(F)(F)F)c(C(F)(F)F)c1 | 10% | –
6.1 | Oc1nc2nonc2cc1Nc1ccc(C(F)(F)F)c(F)c1 | 10% | –
5.9 | Oc1nc2nonc2cc1Nc1cccc(OC(F)(F)F)c1F | 30% | –
4.8 | Oc1nc2nonc2cc1Nc1ccccc1C(F)(F)F | 20% | –
4.2 | Oc1nc2nonc2cc1Nc1ccc(F)c(F)c1 | 17% | –
5.5 | Oc1nc2nonc2cc1Nc1ccc(OC(F)(F)F)cc1C(F)(F)F | 57% | Cmax [5]: 10 µM; t1/2 [6]: > 24 h; EC50 [1]: 3.1 µM
